Patent US20250134889A1, “TARGETING IRE1 KINASE AND FMRP FOR PROPHYLAXIS, MANAGEMENT AND TREATMENT OF ATHEROSCLEROSIS” (CEDARS-SINAI MEDICAL CENTER, priority 2022, published 2025)

Assays:
BMDM = experiment: In vitro efferocytosis; format: cell-based, mouse
Source text: (§1) FIGS. 3A-3G depict that FMRP-deficiency increases efferocytosis in vivo. (For all images scale bar=50 μm; Red: Macrophages, Green: AC/AC-1, Violet: AC-2. Data are mean±SEM. Unpaired t-test with Welch's correction. * P≤0.05, ** P≤0.01, *** P≤0.001.) • 3A-3E. In vitro and in vivo efferocytosis experiments, where percentage of macrophages F4/80^+ (red) that ingested apoptotic cells (AC) labeled with carboxyfluorescein succinimidyl ester (CFSE)^+ (green) were reported as % efferocytosis. • 3A. BMDMs were transfected with Fmr1- or control-siRNA and incubated CFSE-labeled AC for the indicated hours (n=4). • 3B. Fmr1^+/+ and Fmr1^−/− BMDMs were treated with PA (500 μM) for 6 hours and then incubated with CFSE-labeled ACs for 4 hours (n=4). • 3C. Fmr1^+/+ and Fmr1^−/− mice were fed WD (16 weeks) and injected intraperitoneally with CFSE-labeled AC (1.5 hours), followed by PM elicitation (n=4-5). • 3D. BMDM were pre-treated either with vehicle (DMSO) or AMG-18 (5 μM) for 1 hour then incubated with CFSE-labeled ACs for 4 hours (n=4). • 3E. […] In vitro continuous efferocytosis experiments, where macrophages were stained for F4/80^+ (red), AC were labeled with CFSE (AC-1; green) or Violet (AC2; violet). % continuous efferocytosis was determined by the ratio of F4/80^+, CFSE^+ and Violet^+ (triple positive) cells to total F4/80^+/+ and CFSE^+ (double positive) cells. • 3F. […]

PM = experiment: In vivo efferocytosis; design: species or system mouse; settings: C57BL/6, AMG-18 30 mg/kg 8 hours, CFSE-labeled ACs i.p. 1.5 hours
Source text: as §1

Structure (SMILES): Cc1ccc2c(NS(=O)(=O)c3ccccc3Cl)cccc2c1Oc1ncccc1-c1ccnc(N[C@H]2CCCNC2)n1 [AMG-18]
- continued efferocytosis of ACs (BMDM; AMG-18 5 μM 1 hour, AC-1 2 hours then AC-2 2 hours): enhanced
- efferocytosis of ACs (BMDM; CFSE-labeled ACs, AMG-18 5 μM 1 hour then ACs 4 hours, siRNA transfected BMDM): increased
- efferocytosis of ACs by PM in vivo (PM): induced
